Test results from PubChem BioAssay AID1963451 (Molecular Pharmacology Branch, DTP, NCI, 2024).
Several values for one entry are separate records, joined by “and”; a condition that tells them apart may be missing. Identical values can stand only once.

System: 521955-158-R6-J3-PDC complex spheroid growth, % test/control
Assay: Anticancer human tumor 521955-158-R6-J3-PDC patient-derived pancreatic carcinoma cell line growth inhibition [Asc]
Settings: for viability, T/C: stronger effect = lower value
In short: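 Stromal components (HUVEC and hMSC) are co-assembled with the cancer cells into multicellular spheroids. Drugs are then added singly or paired, at concentrations falling by half-log increments from a clinically achievable maximum, capped at 10 microM without known Cmax.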
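Note: spheroids exposed to compounds for 7 days.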
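Throughout, for viability, T/C: 100% = DMSO vehicle control wells.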

`NC(=O)C(=Cn1cnc(-c2cc(C(F)(F)F)cc(C(F)(F)F)c2)n1)c1cncnc1` + CNC(C)C(=O)NC1CN(S(=O)(=O)c2cccc(S(=O)(=O)N3CCC4CCC(C(=O)NC(c5ccccc5)c5ccccc5)N4C(=O)C(NC(=O)C(C)NC)C3)c2)CCC2CCC(C(=O)NC(c3ccccc3)c3ccccc3)N2C1=O was tested, and the IC50 (curve of first compound, second compound 0.00316 µM) was > 0.3 µM, the IC50 (curve of first compound, second compound 0.01 µM) was > 0.3 µM and the IC50 (curve of first compound, second compound 0.0316 µM) was > 0.3 µM. The IC50 (curve of first compound, second compound 0.1 µM) was > 0.3 µM, the IC50 (curve of first compound, second compound 0.316 µM) was > 0.3 µM and the IC50 (curve of first compound, second compound 1 µM) was > 0.3 µM. For the same compound, the viability, T/C (second compound 0.00316 µM, first compound 0.000949 µM) was 114%, the viability, T/C (second compound 0.00316 µM, first compound 0.003 µM) was 122% and the viability, T/C (second compound 0.00316 µM, first compound 0.00949 µM) was 119%. The viability, T/C (second compound 0.00316 µM, first compound 0.03 µM) was 104%, the viability, T/C (second compound 0.00316 µM, first compound 0.0949 µM) was 93.9% and the viability, T/C (second compound 0.00316 µM, first compound 0.3 µM) was 66.5%. The viability, T/C (second compound 0.01 µM, first compound 0.000949 µM) was 71%, the viability, T/C (second compound 0.01 µM, first compound 0.003 µM) was 69.2% and the viability, T/C (second compound 0.01 µM, first compound 0.00949 µM) was 59.2%. The viability, T/C (second compound 0.01 µM, first compound 0.03 µM) was 81.7%, the viability, T/C (second compound 0.01 µM, first compound 0.0949 µM) was 83.7% and the viability, T/C (second compound 0.01 µM, first compound 0.3 µM) was 75.5%. For the same compound, the viability, T/C (second compound 0.0316 µM, first compound 0.000949 µM) was 79.5%, the viability, T/C (second compound 0.0316 µM, first compound 0.003 µM) was 59.5% and the viability, T/C (second compound 0.0316 µM, first compound 0.00949 µM) was 63.9%. For the same compound, the viability, T/C (second compound 0.0316 µM, first compound 0.03 µM) was 62.9%, the viability, T/C (second compound 0.0316 µM, first compound 0.0949 µM) was 79.6% and the viability, T/C (second compound 0.0316 µM, first compound 0.3 µM) was 66.6%. It also gave a viability, T/C (second compound 0.1 µM, first compound 0.000949 µM) of 65.7%, a viability, T/C (second compound 0.1 µM, first compound 0.003 µM) of 69% and a viability, T/C (second compound 0.1 µM, first compound 0.00949 µM) of 65.2%. For the same compound, the viability, T/C (second compound 0.1 µM, first compound 0.03 µM) was 58.7%, the viability, T/C (second compound 0.1 µM, first compound 0.0949 µM) was 75.2% and the viability, T/C (second compound 0.1 µM, first compound 0.3 µM) was 75.1%. It also gave a viability, T/C (second compound 0.316 µM, first compound 0.000949 µM) of 61%, a viability, T/C (second compound 0.316 µM, first compound 0.003 µM) of 69.9% and a viability, T/C (second compound 0.316 µM, first compound 0.00949 µM) of 70.3%. It also gave a viability, T/C (second compound 0.316 µM, first compound 0.03 µM) of 71%, a viability, T/C (second compound 0.316 µM, first compound 0.0949 µM) of 68% and a viability, T/C (second compound 0.316 µM, first compound 0.3 µM) of 70.2%. For the same compound, the viability, T/C (second compound 1 µM, first compound 0.000949 µM) was 54.4%, the viability, T/C (second compound 1 µM, first compound 0.003 µM) was 66.9% and the viability, T/C (second compound 1 µM, first compound 0.00949 µM) was 70%. The viability, T/C (second compound 1 µM, first compound 0.03 µM) was 60.6%, the viability, T/C (second compound 1 µM, first compound 0.0949 µM) was 86.1% and the viability, T/C (second compound 1 µM, first compound 0.3 µM) was 62%.

In the case of `O=C(c1cc(Cc2n[nH]c(=O)c3ccccc23)ccc1F)N1CCN(C(=O)C2CC2)CC1`, the viability, T/C (compound 0.0316 µM) is reported as 103% and 91.4% and 91.6%, the viability, T/C (compound 0.1 µM) is reported as 92.6% and 93.9% and 101% and the viability, T/C (compound 0.316 µM) is reported as 100% and 101% and 87.3%. For the same compound, the viability, T/C (compound 1 µM) was 108% and 101% and 91.8%, the viability, T/C (compound 3.16 µM) was 98.8% and 94.8% and 124% and the viability, T/C (compound 10 µM) was 98.6% and 78.8% and 86.5%. The IC50 (curve of compound) was > 10 µM.

`NC(=O)C(=Cn1cnc(-c2cc(C(F)(F)F)cc(C(F)(F)F)c2)n1)c1cncnc1` + CCN1C(C(=O)NC23CCC(C(=O)O)(CC2)CC3)C(c2cccc(Cl)c2F)C2(C(=O)Nc3cc(Cl)ccc32)C12CCCCC2 was tested, and the IC50 (curve of first compound, second compound 0.00949 µM) was > 0.3 µM, the IC50 (curve of first compound, second compound 0.03 µM) was > 0.3 µM and the IC50 (curve of first compound, second compound 0.0949 µM) was > 0.3 µM. For the same compound, the IC50 (curve of first compound, second compound 0.3 µM) was > 0.3 µM, the IC50 (curve of first compound, second compound 0.949 µM) was > 0.3 µM and the IC50 (curve of first compound, second compound 3 µM) was > 0.3 µM. It also gave a viability, T/C (second compound 0.00949 µM, first compound 0.000949 µM) of 99.6%, a viability, T/C (second compound 0.00949 µM, first compound 0.003 µM) of 86.8% and a viability, T/C (second compound 0.00949 µM, first compound 0.00949 µM) of 77.3%. It also gave a viability, T/C (second compound 0.00949 µM, first compound 0.03 µM) of 99%, a viability, T/C (second compound 0.00949 µM, first compound 0.0949 µM) of 82.9% and a viability, T/C (second compound 0.00949 µM, first compound 0.3 µM) of 93.2%. The viability, T/C (second compound 0.03 µM, first compound 0.000949 µM) was 93.7%, the viability, T/C (second compound 0.03 µM, first compound 0.003 µM) was 83.7% and the viability, T/C (second compound 0.03 µM, first compound 0.00949 µM) was 69.6%. The viability, T/C (second compound 0.03 µM, first compound 0.03 µM) was 86%, the viability, T/C (second compound 0.03 µM, first compound 0.0949 µM) was 103% and the viability, T/C (second compound 0.03 µM, first compound 0.3 µM) was 102%. For the same compound, the viability, T/C (second compound 0.0949 µM, first compound 0.000949 µM) was 88.8%, the viability, T/C (second compound 0.0949 µM, first compound 0.003 µM) was 87.3% and the viability, T/C (second compound 0.0949 µM, first compound 0.00949 µM) was 78.1%. The viability, T/C (second compound 0.0949 µM, first compound 0.03 µM) was 85.1%, the viability, T/C (second compound 0.0949 µM, first compound 0.0949 µM) was 98.8% and the viability, T/C (second compound 0.0949 µM, first compound 0.3 µM) was 113%. It also gave a viability, T/C (second compound 0.3 µM, first compound 0.000949 µM) of 88.7%, a viability, T/C (second compound 0.3 µM, first compound 0.003 µM) of 76.9% and a viability, T/C (second compound 0.3 µM, first compound 0.00949 µM) of 85.8%. For the same compound, the viability, T/C (second compound 0.3 µM, first compound 0.03 µM) was 82.2%, the viability, T/C (second compound 0.3 µM, first compound 0.0949 µM) was 117% and the viability, T/C (second compound 0.3 µM, first compound 0.3 µM) was 107%. For the same compound, the viability, T/C (second compound 0.949 µM, first compound 0.000949 µM) was 94%, the viability, T/C (second compound 0.949 µM, first compound 0.003 µM) was 78.3% and the viability, T/C (second compound 0.949 µM, first compound 0.00949 µM) was 95.1%. It also gave a viability, T/C (second compound 0.949 µM, first compound 0.03 µM) of 78.7%, a viability, T/C (second compound 0.949 µM, first compound 0.0949 µM) of 105% and a viability, T/C (second compound 0.949 µM, first compound 0.3 µM) of 98.1%. For the same compound, the viability, T/C (second compound 3 µM, first compound 0.000949 µM) was 87.2%, the viability, T/C (second compound 3 µM, first compound 0.003 µM) was 97.7% and the viability, T/C (second compound 3 µM, first compound 0.00949 µM) was 69.6%. The viability, T/C (second compound 3 µM, first compound 0.03 µM) was 75.7%, the viability, T/C (second compound 3 µM, first compound 0.0949 µM) was 99.8% and the viability, T/C (second compound 3 µM, first compound 0.3 µM) was 84.4%.

In the case of `Cn1ncnc1[C@H]1c2n[nH]c(=O)c3cc(F)cc(c23)N[C@@H]1c1ccc(F)cc1`, the viability, T/C (compound 0.000316 µM) is reported as 100% and 86% and 85.9%, the viability, T/C (compound 0.001 µM) is reported as 117% and 105% and 93.7% and the viability, T/C (compound 0.00316 µM) is reported as 108% and 97.1% and 83.8%. The viability, T/C (compound 0.01 µM) was 106% and 116% and 114%, the viability, T/C (compound 0.0316 µM) was 97.9% and 96.4% and 84.3% and the viability, T/C (compound 0.1 µM) was 95.5% and 85.7% and 96.4%. For the same compound, the IC50 (curve of compound) was > 0.1 µM.
